How the values were obtained:
Experiment in all cases: relative viability vs DMSO control (72 h) (fraction); higher = more viable cells
SW684 = system: SW684
Procedure, shortened: (§1)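 Relative viability is percent growth read by ATPLite and averaged over up to triplicate wells. Sarcoma cells were seeded in 384-well plates to reach 80–90% confluence and given 2.5 µl of serially diluted compound after 24 h, from source plates of 10 mM to 0.0002 mM. Incubation lasted 72 h at 37 °C, 5% CO2, with 0.1% DMSO vehicle and a 5 µM positive control, and the data were rescaled so 1 equals full and 0 equals none.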

A204 = system: A204
Procedure, shortened: as §1

SK-ES-1 = system: SK-ES-1
Procedure, shortened: as §1

G401 = system: G401
Procedure, shortened: as §1

SK-LMS-1 = system: SK-LMS-1
Procedure, shortened: as §1

HS729 = system: HS729
Procedure, shortened: as §1

SW872 = system: SW872
Procedure, shortened: as §1

MES-SA = system: MES-SA
Procedure, shortened: as §1

SYO-1 = system: SYO-1
Procedure, shortened: as §1

SW1353 = system: SW1353
Procedure, shortened: as §1

SW982 = system: SW982
Procedure, shortened: as §1

KHOS-240S = system: KHOS-240S
Procedure, shortened: as §1

O=C(c1ccc(F)c(F)c1Nc1ccc(I)cc1F)N1CC(O)([C@@H]2CCCCN2)C1 [Cobimetinib]
Settings | relative viability
A204, 0.00017 µM | 1.1
A204, 0.00051 µM | 1.11
A204, 0.00152 µM | 1.12
A204, 0.00457 µM | 1.11
A204, 0.01372 µM | 1.079
A204, 0.04115 µM | 1.04
A204, 0.1235 µM | 1.01
A204, 0.3704 µM | 0.807
A204, 1.111 µM | 0.616
A204, 3.333 µM | 0.424
A204, 10 µM | 0.0102
G401, 0.00017 µM | 0.99
G401, 0.00051 µM | 1.03
G401, 0.00152 µM | 0.993
G401, 0.00457 µM | 0.99
G401, 0.01372 µM | 0.951
G401, 0.04115 µM | 0.896
G401, 0.1235 µM | 0.786
G401, 0.3704 µM | 0.643
G401, 1.111 µM | 0.396
G401, 3.333 µM | 0.0971
G401, 10 µM | 0.0011
HS729, 0.00017 µM | 0.9644
HS729, 0.00051 µM | 1
HS729, 0.00152 µM | 0.97
HS729, 0.00457 µM | 0.962
HS729, 0.01372 µM | 0.915
HS729, 0.04115 µM | 0.922
HS729, 0.1235 µM | 0.876
HS729, 0.3704 µM | 0.852
HS729, 1.111 µM | 0.763
HS729, 3.333 µM | 0.6553
HS729, 10 µM | 0.241
KHOS-240S, 0.00017 µM | 1.07
KHOS-240S, 0.00051 µM | 1.07
KHOS-240S, 0.00152 µM | 1.09
KHOS-240S, 0.00457 µM | 1.05
KHOS-240S, 0.01372 µM | 1.03
KHOS-240S, 0.04115 µM | 0.936
KHOS-240S, 0.1235 µM | 0.79
KHOS-240S, 0.3704 µM | 0.709
KHOS-240S, 1.111 µM | 0.669
KHOS-240S, 3.333 µM | 0.549
KHOS-240S, 10 µM | 0.0497
MES-SA, 0.00017 µM | 0.934
MES-SA, 0.00051 µM | 0.948
MES-SA, 0.00152 µM | 0.925
MES-SA, 0.00457 µM | 0.899
MES-SA, 0.01372 µM | 0.896
MES-SA, 0.04115 µM | 0.824
MES-SA, 0.1235 µM | 0.786
MES-SA, 0.3704 µM | 0.752
MES-SA, 1.111 µM | 0.721
MES-SA, 3.333 µM | 0.6391
MES-SA, 10 µM | 0.0114
SK-ES-1, 0.00017 µM | 1.04
SK-ES-1, 0.00051 µM | 1
SK-ES-1, 0.00152 µM | 1.04
SK-ES-1, 0.00457 µM | 1.03
SK-ES-1, 0.01372 µM | 1.04
SK-ES-1, 0.04115 µM | 1.01
SK-ES-1, 0.1235 µM | 1.02
SK-ES-1, 0.3704 µM | 0.982
SK-ES-1, 1.111 µM | 0.923
SK-ES-1, 3.333 µM | 0.842
SK-ES-1, 10 µM | 0.0122
SK-LMS-1, 0.00017 µM | 1.06
SK-LMS-1, 0.00051 µM | 1.09
SK-LMS-1, 0.00152 µM | 1.05
SK-LMS-1, 0.00457 µM | 1.02
SK-LMS-1, 0.01372 µM | 0.989
SK-LMS-1, 0.04115 µM | 0.767
SK-LMS-1, 0.1235 µM | 0.584
SK-LMS-1, 0.3704 µM | 0.398
SK-LMS-1, 1.111 µM | 0.299
SK-LMS-1, 3.333 µM | 0.1728
SK-LMS-1, 10 µM | 0.0129
SW684, 0.00017 µM | 1.23
SW684, 0.00051 µM | 1.15
SW684, 0.00152 µM | 1.17
SW684, 0.00457 µM | 1.2
SW684, 0.01372 µM | 1.13
SW684, 0.04115 µM | 1.063
SW684, 0.1235 µM | 0.941
SW684, 0.3704 µM | 0.738
SW684, 1.111 µM | 0.536
SW684, 3.333 µM | 0.357
SW684, 10 µM | -0.00433
SW872, 0.00017 µM | 1.06
SW872, 0.00051 µM | 1.01
SW872, 0.00152 µM | 0.923
SW872, 0.00457 µM | 0.775
SW872, 0.01372 µM | 0.67
SW872, 0.04115 µM | 0.622
SW872, 0.1235 µM | 0.606
SW872, 0.3704 µM | 0.574
SW872, 1.111 µM | 0.498
SW872, 3.333 µM | 0.39
SW872, 10 µM | 0.00283
SW982, 0.00017 µM | 1.04
SW982, 0.00051 µM | 1.02
SW982, 0.00152 µM | 1
SW982, 0.00457 µM | 1.01
SW982, 0.01372 µM | 0.98
SW982, 0.04115 µM | 0.942
SW982, 0.1235 µM | 0.878
SW982, 0.3704 µM | 0.804
SW982, 1.111 µM | 0.765
SW982, 3.333 µM | 0.578
SW982, 10 µM | 0.0118
SW1353, 0.00017 µM | 0.989
SW1353, 0.00051 µM | 0.983
SW1353, 0.00152 µM | 1
SW1353, 0.00457 µM | 0.979
SW1353, 0.01372 µM | 0.899
SW1353, 0.04115 µM | 0.838
SW1353, 0.1235 µM | 0.778
SW1353, 0.3704 µM | 0.704
SW1353, 1.111 µM | 0.669
SW1353, 3.333 µM | 0.617
SW1353, 10 µM | 0.0141
SYO-1, 0.00017 µM | 0.985
SYO-1, 0.00051 µM | 0.998
SYO-1, 0.00152 µM | 0.964
SYO-1, 0.00457 µM | 0.9431
SYO-1, 0.01372 µM | 0.928
SYO-1, 0.04115 µM | 0.907
SYO-1, 0.1235 µM | 0.929
SYO-1, 0.3704 µM | 0.84
SYO-1, 1.111 µM | 0.719
SYO-1, 3.333 µM | 0.566
SYO-1, 10 µM | -0.0086

Source: the supplement of paper PMC10883282
